Structures are written as SMILES.

The IC50 is the concentration that gives 50% inhibition.

This assay concerns the target T1, human TRPV3 (Homo sapiens, UniProt Q8NET8).
T1 construct: expressed in transfected cells; host or cells: HEK293
T1 sequence (Q8NET8 1-790): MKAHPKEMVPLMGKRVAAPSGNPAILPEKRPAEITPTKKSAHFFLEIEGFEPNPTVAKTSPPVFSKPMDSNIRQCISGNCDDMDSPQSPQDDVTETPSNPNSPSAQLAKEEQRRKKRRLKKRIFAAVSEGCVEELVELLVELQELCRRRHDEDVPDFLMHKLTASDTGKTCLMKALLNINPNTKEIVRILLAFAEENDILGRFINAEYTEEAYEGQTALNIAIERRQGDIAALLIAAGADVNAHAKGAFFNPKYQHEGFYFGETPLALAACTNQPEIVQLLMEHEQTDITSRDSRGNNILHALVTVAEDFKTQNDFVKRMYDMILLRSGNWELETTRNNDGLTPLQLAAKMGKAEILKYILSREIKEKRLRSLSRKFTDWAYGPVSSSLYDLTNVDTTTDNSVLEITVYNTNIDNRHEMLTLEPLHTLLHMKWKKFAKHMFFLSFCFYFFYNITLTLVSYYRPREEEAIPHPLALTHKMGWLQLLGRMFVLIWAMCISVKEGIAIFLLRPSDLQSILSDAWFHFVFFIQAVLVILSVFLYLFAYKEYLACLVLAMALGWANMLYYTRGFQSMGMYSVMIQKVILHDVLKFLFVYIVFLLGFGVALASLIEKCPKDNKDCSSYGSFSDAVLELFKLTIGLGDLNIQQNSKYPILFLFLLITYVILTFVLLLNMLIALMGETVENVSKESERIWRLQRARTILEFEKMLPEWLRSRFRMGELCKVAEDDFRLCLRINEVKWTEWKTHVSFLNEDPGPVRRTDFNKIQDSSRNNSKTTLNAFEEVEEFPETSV
The assay can be described thus: Calcium flux assay (FLIPR TETRA), recombinant HEK293 cells expressing TRPV3, 2-APB response. The assay is classed as cell-based. The settings on record: 2-APB at its EC80. A digest of the protocol:
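Response is the peak fluorescence increase over baseline, as a percentage of the compound-free response to 2-APB at EC80. Calcium flux recorded on FLIPR TETRA in stable human or mouse TRPV3 HEK293 cells after 90–120 min Calcium-4 dye loading.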
As for `COc1ncnc(OC)c1C(=O)Nc1nc(-c2ccc(OC(F)(F)F)cc2)cs1` [Example 93, 4,6-dimethoxy-N-{4-[4-(trifluoromethoxy)phenyl]-1,3-thiazol-2-yl}pyrimidine-5-carboxamide], the IC50 lay in the range of 100 to 500 nM.

`COc1ncnc(OC)c1C(=O)Nc1nc(-c2ccc(C(F)F)cn2)cs1` [Example 94, N-{4-[5-(difluoromethyl)pyridin-2-yl]-1,3-thiazol-2-yl}-4,6-dimethoxypyrimidine-5-carboxamide]: the IC50 lay in the range of 100 to 500 nM.

In the case of `COc1ncnc(OC)c1C(=O)Nc1nc(-c2ccc(C(F)(F)F)cn2)c(C)s1` [Example 95, 4,6-dimethoxy-N-{5-methyl-4-[5-(trifluoromethyl)pyridin-2-yl]-1,3-thiazol-2-yl}pyrimidine-5-carboxamide], the IC50 is less than 50 nM.

As for `COc1ncnc(OC)c1C(=O)Nc1nc(-c2ccc(C(F)(F)F)cn2)c(CCCO)s1` [Example 96, N-{5-(3-hydroxypropyl)-4-[5-(trifluoromethyl)pyridin-2-yl]-1,3-thiazol-2-yl}-4,6-dimethoxypyrimidine-5-carboxamide], the IC50 lay within 100 to 500 nM.

Consider `COc1ncnc(OC)c1C(=O)Nc1nc(-c2ccc(C(F)(F)F)cn2)c(C#N)s1` [Example 97, N-{5-cyano-4-[5-(trifluoromethyl)pyridin-2-yl]-1,3-thiazol-2-yl}-4,6-dimethoxypyrimidine-5-carboxamide], for which the IC50 lay within 50 to 100 nM.

On to `COc1ncnc(OC)c1C(=O)Nc1nc(C2CCCC2)cs1` [Example 98, N-(4-cyclopentyl-1,3-thiazol-2-yl)-4,6-dimethoxypyrimidine-5-carboxamide], for which the IC50 was in the range of 100 to 500 nM.

Regarding `COc1ncnc(OC)c1C(=O)Nc1nc(C2CCC(F)(F)CC2)cs1` [Example 99, N-[4-(4,4-difluorocyclohexyl)-1,3-thiazol-2-yl]-4,6-dimethoxypyrimidine-5-carboxamide], the IC50 fell in the range of 100 to 500 nM.

Turning to `COc1ncnc(OC)c1C(=O)Nc1nc(C(C)(C)C)c(F)s1` [Example 100, N-(4-tert-butyl-5-fluoro-1,3-thiazol-2-yl)-4,6-dimethoxypyrimidine-5-carboxamide], the IC50 was less than 50 nM.

On to `COc1ncnc(OC)c1C(=O)Nc1nc(C2CCC2)c(F)s1` [Example 101, N-(4-cyclobutyl-5-fluoro-1,3-thiazol-2-yl)-4,6-dimethoxypyrimidine-5-carboxamide], for which the IC50 was in the range of 50 to 100 nM.

Consider `COc1ncnc(OC)c1C(=O)Nc1nc(C2CCC2)c(C#N)s1` [Example 102, N-(5-cyano-4-cyclobutyl-1,3-thiazol-2-yl)-4,6-dimethoxypyrimidine-5-carboxamide], for which the IC50 was in the range of 100 to 500 nM.

Regarding `COc1ncnc(OC)c1C(=O)Nc1nc(/C=C/C2CC2)cs1` [Example 103, N-{4-[(E)-2-cyclopropylethenyl]-1,3-thiazol-2-yl}-4,6-dimethoxypyrimidine-5-carboxamide], the IC50 was greater than 1000 nM.

As for `COc1ncnc(OC)c1C(=O)Nc1nc(/C=C/C(C)(C)C)cs1` [Example 104, N-{4-[(1E)-3,3-dimethylbut-1-en-1-yl]-1,3-thiazol-2-yl}-4,6-dimethoxypyrimidine-5-carboxamide], the IC50 is greater than 1000 nM.

For `COc1ncnc(OC)c1C(=O)Nc1nc(CCC2CC2)cs1` [Example 105, N-[4-(2-cyclopropylethyl)-1,3-thiazol-2-yl]-4,6-dimethoxypyrimidine-5-carboxamide], the 50% inhibitory concentration (IC50) was in the range of 50 to 100 nM.

Turning to `COc1ncnc(OC)c1C(=O)Nc1nc(/C=C/c2ccc(F)cc2)cs1` [Example 106, N-{4-[(E)-2-(4-fluorophenyl)ethenyl]-1,3-thiazol-2-yl}-4,6-dimethoxypyrimidine-5-carboxamide], the IC50 was 500 to 1000 nM.

For the compound `COc1ncnc(OC)c1C(=O)Nc1nc(CCc2ccc(F)cc2)cs1` [Example 107, N-{4-[2-(4-fluorophenyl)ethyl]-1,3-thiazol-2-yl}-4,6-dimethoxypyrimidine-5-carboxamide], the IC50 was 500 to 1000 nM.

As to `COc1cc(F)ccc1-c1csc(NC(=O)c2c(OC)ncnc2OC)n1` [Example 108, N-[4-(4-fluoro-2-methoxyphenyl)-1,3-thiazol-2-yl]-4,6-dimethoxypyrimidine-5-carboxamide], the IC50 lay within 100 to 500 nM.

As to `COc1ncnc(OC)c1C(=O)Nc1nc(-c2ccc(C(F)(F)F)cn2)c(S(=O)(=O)c2ccc(C)cc2)s1` [Example 109, 4,6-dimethoxy-N-[5-(p-tolylsulfonyl)-4-[5-(trifluoromethyl)-2-pyridyl]-1,3-thiazol-2-yl]pyrimidine-5-carboxamide], the half-maximal inhibitory concentration (IC50) was in the range of 100 to 500 nM.

On to `COc1ncnc(OC)c1C(=O)Nc1nc(C(F)(F)F)c(S(=O)(=O)c2ccc(C)cc2)s1` [Example 110, 4,6-dimethoxy-N-[5-(p-tolylsulfonyl)-4-(trifluoromethyl)-1,3-thiazol-2-yl]pyrimidine-5-carboxamide], for which the IC50 fell in the range of 100 to 500 nM.

Turning to `COc1ncnc(OC)c1C(=O)Nc1nc(C(F)(F)F)c(S(=O)(=O)Cc2ccccc2)s1` [Example 111, N-[5-benzylsulfonyl-4-(trifluoromethyl)-1,3-thiazol-2-yl]-4,6-dimethoxy-pyrimidine-5-carboxamide], the IC50 lay in the range of 500 to 1000 nM.

In the case of `COc1ncnc(OC)c1C(=O)Nc1nc(C(F)(F)F)c([S+]([O-])Cc2ccccc2)s1` (centres unmarked) [Example 112, N-(5-(benzylsulfinyl)-4-(trifluoromethyl)thiazol-2-yl)-4,6-dimethoxypyrimidine-5-carboxamide], the IC50 is greater than 1000 nM.

As to `COc1ncnc(OC)c1C(=O)Nc1nc(-c2ccc(C(F)(F)F)cn2)c([S+](C)[O-])s1` (centres unmarked) [Example 113, 4,6-dimethoxy-N-[5-methylsulfinyl-4-[5-(trifluoromethyl)-2-pyridyl]-1,3-thiazol-2-yl]pyrimidine-5-carboxamide], the IC50 was in the range of 500 to 1000 nM.

For `COc1ncnc(OC)c1C(=O)Nc1nc(-c2ccc(C(F)(F)F)cn2)c(S(C)(=O)=O)s1` [Example 114, 4,6-dimethoxy-N-[5-methylsulfonyl-4-[5-(trifluoromethyl)-2-pyridyl]-1,3-thiazol-2-yl]pyrimidine-5-carboxamide], the IC50 lay within 100 to 500 nM.

With `COc1ncnc(OC)c1C(=O)Nc1nc(C(F)(F)F)c(Sc2ccccc2)s1` [Example 115, 4,6-dimethoxy-N-[5-phenylsulfanyl-4-(trifluoromethyl)-1,3-thiazol-2-yl]pyrimidine-5-carboxamide], the half-inhibitory concentration (IC50) fell in the range of 50 to 100 nM.

Take `COc1ncnc(OC)c1C(=O)Nc1nc(C(F)(F)F)c(C(C)(C)O)s1` [Example 116, N-[5-(2-hydroxypropan-2-yl)-4-(trifluoromethyl)-1,3-thiazol-2-yl]-4,6-dimethoxypyrimidine-5-carboxamide]: the IC50 was greater than 1000 nM.

Take `COc1ncnc(OC)c1C(=O)Nc1nc(C(F)(F)F)c(C2(O)CCOCC2)s1` [Example 117, N-[5-(4-hydroxytetrahydro-2H-pyran-4-yl)-4-(trifluoromethyl)-1,3-thiazol-2-yl]-4,6-dimethoxypyrimidine-5-carboxamide]: the IC50 is greater than 1000 nM.

As to `COc1ncnc(OC)c1C(=O)Nc1nc(C(F)(F)F)c(C2(F)CCOCC2)s1` [Example 118, N-[5-(4-fluorotetrahydro-2H-pyran-4-yl)-4-(trifluoromethyl)-1,3-thiazol-2-yl]-4,6-dimethoxypyrimidine-5-carboxamide], the IC50 lay within 500 to 1000 nM.

(Values after US20180243298A1, “TRPV3 MODULATORS” (AbbVie Inc., priority 2015, published 2018).)
